Measured values reported in patent US20210085623A1, “Formulation” (Medherant Limited, priority 2017, published 2021).

Legend:
[1] = Passive release of ibuprofen from pressure sensitive adhesive patch, diffusion cells; details: Nylon membrane, patch without excipients
Description: Prior to determination of active pharmaceutical ingredient (API) diffusion across skin mimicking membranes, a passive release of ibuprofen from the pressure sensitive adhesive must be verified. […] Such an experiment can be performed using non-rate-limiting membranes, for example porous silicone, Nylon or polytetrafluoroethylene (PTFE). In this study, Nylon was employed as the test model for passive release.
All further mentioned patches contain 10 wt % of API. Unless stated otherwise, 6 sample patches were analysed in parallel. […] Experimental conditions are listed below.
Patch components: Pressure sensitive adhesive, ibuprofen, […]. Patch thickness: 300 μm Membrane type: Nylon, pore size 0.45 μm Apparatus: diffusion cells Acceptor medium: mixture of pH 7.4 PBS/2-(2-ethoxyethoxy) ethanol (90/10 vol.) […]

[2] = Permeation of ibuprofen from patches through Strat-M membranes, diffusion cells; type: in vitro ADME; details: Strat-M membrane, patch without excipients
Description: In order to determine the necessity for further modification of ibuprofen patches with excipients, permeation rates of the API were observed using Strat-M membranes. Strat-M membranes are produced by Merck Millipore as a synthetic transdermal diffusion model to avoid animal or human skin testing. There is a correlation tool on a dedicated website allowing a comparison with human skin. Permeation profiles can vary depending on a drug, but it proves that Strat-M membranes can be employed as a reliable evaluation of any transdermal system in terms of human skin penetration. It must be said that penetration profiles in the case of human skin may differ from the aforementioned membrane, but allows predicting the efficacy of patches with certain reliability.
Patches tested in this study are from the same batch as employed in release experiments and were run under the same conditions. Permeation profiles and release profiles of ibuprofen through Strat-M membranes are depicted in FIGS. 1 and 2, respectively. […]

SMILES: CC(C)Cc1ccc(C(C)C(=O)O)cc1 (stereo not drawn) [ibuprofen]
- Total Released Amount ([1]; 1 h): 227.93 μg cm^−2
- Total Released Amount ([1]; 2 h): 438.23 μg cm^−2
- Total Released Amount ([1]; 4 h): 726.09 μg cm^−2
- Total Released Amount ([1]; 6 h): 967.49 μg cm^−2
- Total Released Amount ([1]; 8 h): 1124.13 μg cm^−2
- Total Released Amount ([1]; 10 h): 1257.46 μg cm^−2
- Total Released Amount ([1]; 12 h): 1397.34 μg cm^−2
- Total Released Amount ([1]; 24 h): 1650.21 μg cm^−2
- Flux ([2]; 1 h): 1.29 μg cm^−2 h^−1
- Total Amount ([2]; 1 h): 1.291 μg cm^−2
- Flux ([2]; 2 h): 2.75 μg cm^−2 h^−1
- Total Amount ([2]; 2 h): 4.044 μg cm^−2
- Flux ([2]; 4 h): 2.71 μg cm^−2 h^−1
- Total Amount ([2]; 4 h): 9.466 μg cm^−2
- Flux ([2]; 6 h): 3.56 μg cm^−2 h^−1
- Total Amount ([2]; 6 h): 16.595 μg cm^−2
- Flux ([2]; 8 h): 3.91 μg cm^−2 h^−1
- Total Amount ([2]; 8 h): 24.424 μg cm^−2
- Flux ([2]; 10 h): 5.82 μg cm^−2 h^−1
- Total Amount ([2]; 10 h): 36.066 μg cm^−2
- Flux ([2]; 12 h): 6.92 μg cm^−2 h^−1
- Total Amount ([2]; 12 h): 49.915 μg cm^−2
- Flux ([2]; 24 h): 4.96 μg cm^−2 h^−1
- Total Amount ([2]; 24 h): 109.467 μg cm^−2
